No end group written: not given here.
Assays:
Format in all cases: cell-based
Conditions in all cases: Miller units normalized to poly-Leu* = 1 and corrected for expression, lower = stronger interaction, N in table
[1] = system: GpA TMD (functional ToxR chimera); experiment: Dominant-negative (heterotypic) ToxR assay, GpA as dominant phenotype
Excerpt: (§1) Next, we investigated heterotypic interactions of the TLRs. We specifically studied TLR2, TLR1, and TLR6 because they are cell surface expressed receptors known to form functional heterodimers. To determine the ability of these three cell surface TLRs to have heterotypic interactions within its family, we studied the ability of the TLR1, TLR2, and TLR6 TMDs to interact with the TLR receptors also expressed at the cell surface; namely, TLR1, TLR2, TLR4, TLR5, TLR6, and TLR10. We monitored these interactions using a dominant-negative ToxR assay (Fig. S1B) which works by having a second TMD expressed with a non-functional ToxR* intracellular domain. This ToxR* domain is incapable of binding the ctx promoter making any interactions with this second expressed TMD unable to produce the reporter enzyme. As such, any interaction between the functional ToxR and non-functional ToxR* TMDs will result in a reduction in signal output.
(§2) Figure 3 Cell- Surface Toll-like Recptor Heterotypic Interactions. (A) A dominant-negative ToxR assay was used to study heterotypic interactions of the cell-surface TLRs. Two TLR TMDs were encoded in the FHK12 E.coli reporter strain, one with a functional ToxR domain (dominant phenotype) and one with a nonfunctional ToxR* domain (negative phenotype). Interaction between the two different TMDs leads to a reduction in signal from that seen for homotypic interactions. The TMDs for GpA, TLR1, TLR2, and TLR6 were used with the functional ToxR domain while TMDs for poly-Leucine, TMD5, integrin αIIb, TLR1, TLR2, TLR4, TLR5, TLR6, and TLR10 were used with the nonfunctional ToxR* domain. Interactions were most prominent for the TLRs known to have heterotypic interactions – TLR2-TLR1 and TLR2-TLR6. […] We also saw interaction with the same TMD further validating the homotypic interactions. […] Each dominant phenotype was done in 3 technical replicates with each negative phenotype and >6 measurements made for each replicate. Error bars depict the standard error of the mean (n- Tables S3, S5, S7, S9). Western blots staining for MBP were performed to monitor expression levels of the constructs with the upper band being functional ToxR chimeras and the lower band being nonfunctional ToxR* chimeras – (B) GpA, (C) TLR1, (D) TLR2, and (E) TLR6. Significant differences for the same dominant phenotype were determined by use of the Tukey-Kramer test.
(§3) For heterotypic interactions one plasmid containing a functional ToxR domain (200 ng) and a second plasmid containing a non-functional ToxR* domain (200 ng) were co-transformed into chemically competent FHK12 E. coli (400 µL) by incubating on ice for 30 min, heat shock at 42°C for 90 s, incubation on ice for 2 min, and addition of SOC media (1600 µL) followed by incubation with shaking for 1 h at 37°C. This transformation mixture (50 µL) was then used to spread LB-agar plates containing cholaramphenicol (30 µg/mL), kanamycin (33 µg/mL), and ampicillin (100 µg/mL) and grown overnight at 37°C. Single colonies were selected from the plates and grown in 5 mL LB media containing cholaramphenicol (30 µg/mL), kanamycin (33 µg/mL), ampicillin (100 µg/mL), and arabinose (0.0025%) overnight (16–20 h) with shaking at 37°C. Analysis of activity was monitored as described in homotypic ToxR assays. Western blotting was done in the same manner as the homotypic ToxR assay with one band appearing for the functional ToxR construct and a second band for the nonfunctional ToxR* construct. Data were normalized to poly-Leu* Miller Units and corrected for varying protein expression levels using ImageJ (NIH) as previously reported.

[2] = system: TLR2 TMD (functional ToxR chimera); experiment: Dominant-negative (heterotypic) ToxR assay, TLR2 as dominant phenotype
Excerpt: as §1, §2, §3

[3] = system: TLR1 TMD (functional ToxR chimera); experiment: Dominant-negative (heterotypic) ToxR assay, TLR1 as dominant phenotype
Excerpt: as §1, §2, §3

Substance: TLR6*: TLR6 TMD chimera with nonfunctional ToxR* domain (negative phenotype) (GNRASITLLIVTIGATMLVLAVTVTSLCIYLGSLIN; also: fused to non-functional ToxR* (S87H) and maltose binding protein, ends not given here)
- Mean GpA-TMD* heterotypic interaction (ToxR signal) [1]: 1.0451
- Mean TLR2-TMD* heterotypic interaction (ToxR signal) [2]: 0.2588
- Mean TLR1-TMD* heterotypic interaction (ToxR signal) [3]: 0.3349

Substance: TLR2*: TLR2 TMD chimera with nonfunctional ToxR* domain (negative phenotype) (GNRASALVSGMCCALFLLILLTGVLCGSLIN; cysteine pairing not given here; also: fused to non-functional ToxR* (S87H) and maltose binding protein, ends not given here)
- Mean GpA-TMD* heterotypic interaction (ToxR signal) [1]: 0.7284
- Mean TLR2-TMD* heterotypic interaction (ToxR signal) [2]: 0.1930
- Mean TLR1-TMD* heterotypic interaction (ToxR signal) [3]: 0.3243

Substance: TLR1*: TLR1 TMD chimera with nonfunctional ToxR* domain (negative phenotype) (GNRASITLLIVTIVATMLVLAVTVTSLCSYLGSLIN; also: fused to non-functional ToxR* (S87H) and maltose binding protein, ends not given here)
- Mean GpA-TMD* heterotypic interaction (ToxR signal) [1]: 0.8934
- Mean TLR2-TMD* heterotypic interaction (ToxR signal) [2]: 0.2198
- Mean TLR1-TMD* heterotypic interaction (ToxR signal) [3]: 0.3722
